Measured values published in patent US8865672B2, “Prevention of tissue ischemia and related methods” (The United States of America, as represented by the …, priority 2006, dated 2014).

How the values were obtained:
HAVSMC = experiment: 3D collagen matrix contraction assay, human aortic VSMC; type: cell-based; conditions: for TSP1 block of NO relaxation of FCS-induced gel contraction: human aortic VSMC pretreated with 10 μM morpholino
Method: Type I collagen gel (3 mg/ml) with 10×M199 (Gibco, Grand Island, N.Y.) at a 10:1 ratio of collagen to medium was prepared, pH balanced with NaOH and seeded with either HAVSMC or VSMC harvested from aortic segments from C57B16 WT or TSP1 null mice (50,000 cells in 75 μl of gel/well) and aliquoted to 96-well plates (Nunc, Denmark). Plates were incubated for 12 h 37° C. and 5% CO2 allowing for gelation and cell spreading, gently released from the well walls and incubated in serum and additive deficient growth medium with 0.1% BSA in the presence of the indicated treatment agents for 10 h. Contraction was determined by measuring the diameter in perpendicular planes (x, y) of each disk, an average obtained and surface area calculated as (d/2)^2π. Experiments were performed in triplicate. Results represent the mean±SD of at least three separate experiments.
(§1) Human aortic VSMC were plated onto 12-well culture plates (Nunc) at a density of 5×10^4 cells/well in SM-GM+2% FCS and cultured until approximately 90% confluent. A translation-blocking antisense morpholino oligonucleotide complementary to human and murine CD47 ([…]; SEQ ID NO: 21) and a five-base mismatch control (CGTgACAGcCAcGACCgACTGCgCA; SEQ ID NO: 22) were obtained from GeneTools (Philomath, Oreg.). Cultured cells were treated as per the manufacturer's recommendation with morpholinos (10 μM) and utilized within 48 hours of treatment.

[1] = system: random myocutaneous flaps in mice; experiment: Random myocutaneous (McFarlane) flap model; type: in vivo, mouse
Method: WT and TSP1 null mice were matched for sex and age. Under isoflurane inhalation anesthesia 1×2 cm random myocutaneous flaps were raised. Where indicated, animals received either L-NAME (0.5 mg/ml) or ISDN (1 mg/ml) ad libitum in drinking water during the post-operative period. On postoperative day 7, the animals were again anesthetized with inhalation isoflurane and flaps evaluated. Viable and necrotic areas of the flaps were determined by color, refill, eschar, and the pin-prick test. Outlines of viable and nonviable areas were traced using transparent film and the area of flap necrosis versus total flap area determined as described (Yu et al., Proc Natl Acad Sci USA 102:10999-11004, 2005).
Wild type, TSP1 null, CD36 null and CD47 null mice were matched for sex and age underwent random dorsal myocutaneous flaps as described (Isenberg et al., Blood 2006; Example 2) and tissue harvested on postoperative day 7.
The necrotic area of the flap was determined as described (Isenberg et al., Blood. Nov. 2, 2006) Animals were then euthanized and flaps excised, fixed in 10% paraformaldehyde and processed for histology.
Random myocutaneous flap wound beds and/or ischemic hindlimb vastus medialis muscle was assessed at indicated time points (72 hours or 7 days post-operatively) for visible alterations in vascularity under 5× magnification. An arbitrary though strictly applied definition of countable vessels was employed to highlight both individual vessels and vascular ramifications. In any given vascular plexus visible by 5× magnification a vessel was defined as that segment traversing two branches. Visible vessels without ramifications and branches were counted once. Treatment status and genetic background of tissue images was not known by the reviewer.
Animals underwent creation of a random myocutaneous (McFarlane) flap as previously described (Isenberg et al., Blood 109:1945-1952, 2007). Some animals received either ISDN (1 mg/mL) or L-NAME (0.5 mg/ml) ad libitum in the drinking water during the post-operative interval.
Flap soft tissue units and underling wound beds were injected with control vehicle (normal saline), a CD47 morpholino or a control morpholino (10 μM) in sterile saline. Flap survival was determined as described.

human aortic VSMC = experiment: Intracellular cGMP in human aortic VSMC after morpholino; type: cell-based; conditions: for TSP1 inhibition of NO-driven cGMP accumulation: human aortic VSMC pre-treated with morpholino
Method: as §1
cGMP was determined in human aortic VSMC via immunoassay as described (Isenberg et al., Blood 2006; Example 2). In some situations cells were pretreated with a CD47 or control morpholino prior to assay.

[2] = WT mice 14-18 months, injected to flap and wound bed
[3] = wild type flaps, local injection, day 7
[4] = wild type flaps, morpholino 10 μM

Substance	TSP1 block of NO relaxation of FCS-induced gel contraction (HAVSMC)	flap tissue survival [1, 2]	flap tissue survival [1, 3]	TSP1 inhibition of NO-driven cGMP accumulation (human aortic VSMC)	flap tissue survival ([1]; ApoE-null mice 12-16 months, high fat diet, day 7) [%]	flap mitochondrial viability ([1]; aged WT flaps)	remodeling of collateral flap vessels ([1]; aged WT flaps)	CD47 immunohistochemical staining of flaps [1, 4]	wound bed vascularity [1, 4]	inhibitory activity of NO on gel contraction (HAVSMC; HAVSMC, DETA/NO 10 μM, TSP1 2.2 nM)	NO-driven cGMP flux (human aortic VSMC; untreated VSMC)
CGTgACAGcCAcGACCgACTGCgCA (antisense CGTGACAGCCACGACCGACTGCGCA; all phosphorodiamidate morpholino (PMO)) [control morpholino, reference compound]	remained sensitive to TSP1 inhibition	degrees of tissue necrosis comparable to untreated aged WT animals	necrosis comparable to that for untreated wild type flaps	retained sensitivity to inhibition	–	–	–	–	–	–	–
CGTCACAGGCAGGACCCACTGCCCA (all phosphorodiamidate morpholino (PMO)) [CD47 morpholino]	TSP1 was not able to block this relaxation	91±4%	~100%	essentially blind to the inhibitory effects of TSP1	84±7	markedly increased	substantial remodeling of existing collateral flap vessels	decreased protein staining	substantial increases in visible blood vessels	–	–
TSP1: thrombospondin-1 prepared from human platelets	–	–	–	–	–	–	–	–	–	completely abrogated	complete inhibition of an NO-driven cGMP flux
